This passage reports transformation efficiency results from US12527270B2, “Promoting regeneration and transformation in plants” (KWS SAAT SE & CO. KGAA, priority 2020, dated 2026).

This experiment concerns Beta vulgaris calli. Description: DEX-inducible 35S-BnBBM-GR: shoot formation and callus-based transformation efficiency. Type of experiment: cell-based, Beta vulgaris (sugar beet). As to conditions: BnBBM-GR with DEX-induction. How it is done:
By applying the following method callus for Beta vulgaris (sugar beet) has been induced: Micropropagated shoots were used as starting material. Shoots were multiplied in medium containing MS salts, 30 g/l sucrose, 0.25 mg/l benzyladenine (BAP) and 10 g/l agar (pH 6.0). To induce friable callus, leaf explants were incubated for 7-8 weeks in media having MS salts, 15 g/l sucrose, 2 mg/l BAP, and 8 g/l agar (pH 6.0).
For Agrobacterium-mediated transformation friable calli were mounted in media containing MS salts, 30 g/l sucrose, 1 mg/l GA3, 1 mg/l TDZ, and 10 g/l agar (pH 6.0) and kept for 1 week in the dark at 24° C. Agrobacterium harbouring the vector of IPR232-pS-01 (FIG. 12) was grown in medium containing 5 g/l tryptone, 2.5 g/l yeast extract, 1 g/l NaCl, 5 g/l mannitol, 0.1 g/l MgSO4×7H2O, 0.25 g/l KH2PO4, 1 g/l glutamic acid (pH 7.0) supplemented with the appropriate antibiotics, at 28° C., for 24 h. […]
For quantification of transformation rate a) the inducible BnBBM system based on DEX/GR as described above as well as a constitutive overexpression of BnBBM have been tested on an amenable genotype and a recalcitrant genotype. […]

In the case of `C[C@@H]1C[C@H]2[C@@H]3CCC4=CC(=O)C=C[C@]4(C)[C@@]3(F)[C@@H](O)C[C@]2(C)[C@@]1(O)C(=O)CO` [DEX, dexamethasone], the transformation efficiency entry was “around 70%” (amenable genotype) and “around 18%” (recalcitrant genotype).
